Laboratory results from US7723301B2, “Pharmaceutical compositions comprising an anti-teratogenic compound and applications of the same” (The Board of Trustees of the University of Arkansas, priority 2007, dated 2010).

Tests used:
[1] = system: primary embryonic fibroblasts of mice (MEFs); assay: Cell death by trypan blue staining in MEFs; assay type: cell-based, mouse
Experimental: Primary limb bud cells (PLBCs) were isolated from 60 pooled wing and hindlimb buds of HH stages 23/24 embryos. Fibroblasts were gained from HH stage 34 chicken embryos or from 13.5 d.p.c. mouse embryos. Human embryonic fibroblasts were provided by Matthias Maass (2). Before adding reagents, all cell types were cultured for 16 hours in D-MEM (Gibco) plus 10% fetal calf serum (FCS) and 2% chicken serum. Treatment with thalidomide, phthalimide, recombinant human (rh) BMP4 (300 ng/ml; R&D Systems), juglone (5 μM; Sigma), recombinant mouse Noggin (30, 300, 1000 ng/ml in FIG. 4B; 300 ng/ml in FIGS. 4C and 6A), anti-human-DKK1 antibody (35, 350 and 1000 ng/ml in FIG. 4B; 350 ng/ml in FIGS. 4C and 6A), LiCl (3, 30, 60 mM in FIG. 4B; 30 mM in FIGS. 4C, 6A and 6C) and/or (2Z,3E)-6-Bromoindirubin-3-oxime (BIO, Gsk3-Inhibitor IX; 50, 500, 1000 nM in FIG. 4B; 500 nM in FIG. 6A; 50 and 500 nM in FIG. 6C; Calbiochem) were performed in Optimem1 (Invitrogen) plus 1% FCS. Unless otherwise noted, all treatments with thalidomide and rh-BMP4 and associated controls were done for six hours. […]
Cell death in PLBCs, CEFs, MEFs and HEFs was detected by staining with trypan blue (0.1% (w/v) in PBS; Sigma) for 90 seconds. Cells were counted in a counting chamber to determine the ratio of dead to live cells.

chicken embryos = assay: Thalidomide-induced limb truncations and microphthalmia in chicken embryos; assay type: in vivo
Experimental: Fertilized eggs were purchased from Deindl GmbH, Rietberg-Varensell. They were incubated at 38° C. in a humidified incubator, windowed after one day and staged according to Hamburger and Hamilton (HH stage). Racemic thalidomide (Celgene), thalidomide enantiomers or phthalimide (Sigma) were dissolved in DMSO at 5 mg/ml and further diluted in PBS. Embryos were exposed to drugs by dropping 15 μg-3 mg thalidomide or phthalimide per kg egg weight (about 1-200 μg per embryo) in 50 μl DMSO/PBS as a single dose at HH stages 0-13 onto the embryo. Thalidomide (50 μg) or phthalimide (50 μg) in 10 μl DMSO was injected into the extra-embryonic blood vessels of HH 19 stage embryos. […] Recombinant Noggin, Dkk1 specific goat IgG (R&D Systems) or serum of non-immunized goats (Sigma) was dissolved in 0.1% BSA/0.01% Fast Green/PBS. Noggin (10 or 100 ng), Dkk1 specific goat IgG (5 or 50 ng) or serum of non-immunized goats (50 ng) was applied to a single embryo at HH stages 17-19 by injecting a 10 μl solution through the extra-embryonic membranes.
The morphology of the limbs was studied in specimens fixed in 5% trichloroacetic acid and stained for cartilage with alcian green as described (3).

β-catenin = assay: Sub-cellular localization of β-catenin in CEFs; assay type: cell-based, chicken; conditions: in the presence of Wnt3a, data not shown
Experimental: CEFs or HEFs attached on cover slips were incubated with Wnt3a-conditioned medium including thalidomide or solvent or with control medium for five hours. β-catenin was detected by using a mouse anti-β-catenin antibody (1:500, BD Transduction Laboratories), an anti-mouse Cy3-coupled secondary antibody (Dianova) and fluorescence microscopy. Afterwards, a DAPI staining was performed as a control. Quantification was done by counting the nuclei with a clear fluorescent signal in relation to the number of DAPI-stained nuclei.

[2] = chicken, in vivo, 7 day of incubation

O=C1CCC(N2C(=O)c3ccccc3C2=O)C(=O)N1 (racemic) [thalidomide, 2-(2,6-dioxo-3-piperidyl)isoindole-1,3-dione]
induction of cell death in MEFs ([1]; 38.7 μM (10 μg/ml), six hours): did not induce cell death | induction of cell death in MEFs with longer incubation times and concentrations up to 100 μg/ml ([1]; up to 100 μg/ml, data not shown): did not significantly induce cell death above controls | embryonic lethality in comparison to solvent controls (chicken embryos; 750 μg/kg egg weight, HH stages 4/5, first seven days): did not significantly increase embryonic lethality | EC50 for induction of limb and eye defects (chicken embryos; applied at HH stages 4/5): 50 μg/kg egg weight | dose inducing a maximum of limb truncations and microphthalmia (chicken embryos; chicken, in vivo): 750 μg/kg egg weight | other limb malformations (fusion at the level of the metacarpal cartilage, abducted legs), frequency in total (chicken embryos; chicken, in vivo): observed, but at a much lower frequency (in total 4%, data not shown). | embryos showing both limb abnormalities and microphthalmia (chicken embryos; [2]): about 5% | embryos with uni- or bilateral microphthalmia (chicken embryos; [2]): 21% | effect of increasing the amount up to 3 mg/kg egg weight (chicken embryos; in vivo): neither influenced the quality nor the quantity of limb truncations or microphthalmia | frequency of limb truncations and microphthalmia on application at later stages (chicken embryos; in vivo): clearly reduced the frequency of limb truncations and microphthalmia | number of CEFs positive for nuclear β-catenin (β-catenin): dramatic reduction
